Where two headings read alike, the source gives them in different places.
Biological target: T1, F508delCFTR (Homo sapiens, UniProt P13569, DEL508-508)
T1 construct: expressed in transfected cells; host or cells: CFBE41o- human lung-derived epithelial cells (CFBE4lo-F508delCFTR-HRP), doxycycline-inducible
Experiment: Cell Surface Expression-Horse Radish Peroxidase (CSE-HRP) Assay;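 on Maximum % activity (with co-corrector): co-corrector and positive control are both the same reference corrector at 2 µM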;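 on Maximum % activity (without co-corrector): percent of the 2 µM on-plate positive control corrector response above DMSO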
Format: cell-based
Conditions: for Maximum % activity (with co-corrector) / Emax: maximum at any tested concentration, normalized to on-plate positive control; for Emax: read-out: Maximum % activity (without co-corrector)

[1] = test compound without co-corrector, read-out: EC50 (without co-corrector)
[2] = with co-corrector (2 μM of 3-[(2R,4R)-4-({[1-(2,2-difluoro-1,3-benzodioxol-5-yl)cyclopropyl]carbonyl}amino)-7-methoxy-3,4-dihydro-2H-chromen-2-yl]benzoic acid), read-out: EC50 (with co-corrector)
[3] = test compound without co-corrector
[4] = with co-corrector (2 μM of 3-[(2R,4R)-4-({[1-(2,2-difluoro-1,3-benzodioxol-5-yl)cyclopropyl]carbonyl}amino)-7-methoxy-3,4-dihydro-2H-chromen-2-yl]benzoic acid)
[5] = CSE-HRP, test compound without co-corrector, read-out: EC50 (without co-corrector)
[6] = CSE-HRP, with co-corrector (2 μM of 3-[(2R,4R)-4-({[1-(2,2-difluoro-1,3-benzodioxol-5-yl)cyclopropyl]carbonyl}amino)-7-methoxy-3,4-dihydro-2H-chromen-2-yl]benzoic acid), read-out: EC50 (with co-corrector)
[7] = CSE-HRP, with co-corrector (2 μM)

T1 sequence (P13569 with tags, fused parts or gaps DEL508-508): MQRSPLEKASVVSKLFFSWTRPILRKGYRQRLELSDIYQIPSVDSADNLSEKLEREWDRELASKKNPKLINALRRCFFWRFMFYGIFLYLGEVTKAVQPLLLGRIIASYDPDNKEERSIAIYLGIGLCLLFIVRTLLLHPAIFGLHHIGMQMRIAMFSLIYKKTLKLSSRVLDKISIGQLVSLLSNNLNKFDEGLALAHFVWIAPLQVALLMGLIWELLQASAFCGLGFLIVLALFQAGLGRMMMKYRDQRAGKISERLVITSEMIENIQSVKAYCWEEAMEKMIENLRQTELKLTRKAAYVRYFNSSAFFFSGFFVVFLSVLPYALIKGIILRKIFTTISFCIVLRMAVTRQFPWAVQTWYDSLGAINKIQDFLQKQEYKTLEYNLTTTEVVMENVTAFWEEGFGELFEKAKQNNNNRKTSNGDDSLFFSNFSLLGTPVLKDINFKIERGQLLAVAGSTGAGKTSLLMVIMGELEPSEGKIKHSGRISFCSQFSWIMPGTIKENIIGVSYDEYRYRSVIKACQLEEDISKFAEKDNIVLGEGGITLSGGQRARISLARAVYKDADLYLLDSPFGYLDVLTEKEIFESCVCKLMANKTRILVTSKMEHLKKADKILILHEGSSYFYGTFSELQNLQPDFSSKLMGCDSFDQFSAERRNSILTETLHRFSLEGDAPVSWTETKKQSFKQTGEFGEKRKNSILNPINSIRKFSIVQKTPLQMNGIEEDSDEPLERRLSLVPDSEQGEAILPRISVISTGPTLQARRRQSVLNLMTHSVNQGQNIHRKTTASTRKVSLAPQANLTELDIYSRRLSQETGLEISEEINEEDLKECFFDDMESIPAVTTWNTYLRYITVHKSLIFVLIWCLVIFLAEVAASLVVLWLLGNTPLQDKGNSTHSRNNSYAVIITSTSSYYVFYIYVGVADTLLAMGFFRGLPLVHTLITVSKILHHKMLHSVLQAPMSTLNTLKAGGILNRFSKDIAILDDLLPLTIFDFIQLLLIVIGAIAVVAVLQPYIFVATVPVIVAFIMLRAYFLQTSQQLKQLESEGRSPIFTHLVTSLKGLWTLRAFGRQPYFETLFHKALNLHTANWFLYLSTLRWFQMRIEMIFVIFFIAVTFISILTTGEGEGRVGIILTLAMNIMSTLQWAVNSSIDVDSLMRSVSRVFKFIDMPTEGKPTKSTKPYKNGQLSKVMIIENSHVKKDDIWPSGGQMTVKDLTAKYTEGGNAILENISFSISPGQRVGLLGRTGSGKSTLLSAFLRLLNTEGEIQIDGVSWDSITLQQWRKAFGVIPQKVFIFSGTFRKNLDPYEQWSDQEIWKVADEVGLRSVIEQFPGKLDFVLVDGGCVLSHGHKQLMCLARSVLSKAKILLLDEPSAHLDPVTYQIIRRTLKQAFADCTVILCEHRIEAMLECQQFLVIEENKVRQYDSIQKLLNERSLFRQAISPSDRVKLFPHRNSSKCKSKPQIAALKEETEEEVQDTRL

Row | EC50 [1] [µM] | EC50 [2] [µM] | Maximum % activity (with co-corrector) (with co-corrector (2 μM)) | Emax (without co-corrector) [%] | Emax [3] [%] | Maximum % activity (with co-corrector) [4] | EC50 [5] [µM] | EC50 [6] [µM] | Maximum % activity (with co-corrector) [7] | Emax (CSE-HRP, without co-corrector) [%] | Structure (SMILES)
1 | 1 to 10 | 1 to 10 | – | – | 100 to 200 | +++ (≥350) | – | – | – | – | COc1cc2c(cc1CN[C@H]1[C@H](C(C)(C)C)[C@@H](C(=O)O)N(C(=O)OC(C)C)[C@H]1c1cccnc1N(C)C)CCC2 [II-563]
2 | – | – | – | – | – | – | 1 to 10 | 1 to 10 | +++ (≥350) | < 100 | COc1cc(C(F)(F)F)ccc1CN[C@H]1[C@H](C(C)(C)C)[C@@H](C(=O)O)N(C(=O)C2CCCCC2)[C@H]1c1ccccc1F [II-261]
3 | 1 to 10 | 1 to 10 | +++ (≥350) | – | 100 to 200 | – | – | – | – | – | COc1ccc(C(C)(C)C)cc1CN[C@H]1[C@H](C(C)(C)C)[C@@H](C(=O)O)N(C(=O)c2cc(F)cc3c2OCOC3)[C@H]1c1ccccc1 [III-178]
4 | 1 to 10 | 1 to 10 | – | – | 100 to 200 | +++ (≥350) | – | – | – | – | COc1cc2ccccc2cc1CN[C@H]1[C@H](C(C)(C)C)[C@@H](C(=O)O)N(C(=O)OC(C)C)[C@H]1c1cccnc1N(C)C [II-562]
5 | 1 to 10 | 1 to 10 | – | – | > 200 | +++ (≥350) | – | – | – | – | COc1cc2ccccc2cc1CN[C@H]1[C@H](C(C)(C)C)[C@@H](C(=O)O)N(C(=O)OC(C)C)[C@H]1c1ccccc1 [II-550]
6 | 1 to 10 | 1 to 10 | – | – | < 100 | +++ (≥350) | – | – | – | – | COc1ccc(C(F)(F)F)cc1CN[C@H]1[C@H](C(C)(C)C)[C@@H](C(=O)O)N(C(=O)C2(C)CCCOC2)[C@H]1c1ccccc1N(C)C (mixture of isomers) [III-77]
7 | 1 to 10 | < 1 | – | – | 100 to 200 | +++ (≥350) | – | – | – | – | COc1ncc(C(F)(F)F)cc1CN[C@H]1[C@H](C(C)(C)C)[C@@H](C(=O)O)N(C(=O)[C@H](C)OC)[C@H]1c1ccccc1C(C)C [II-590]
8 | 1 to 10 | 1 to 10 | ++ (≥150 and <350) | – | < 100 | – | – | – | – | – | COc1ccc(C(C)(C)C)cc1CN[C@H]1[C@H](C(C)(C)C)[C@@H](C(=O)O)N(C(=O)c2cn(C)c3ccccc23)[C@H]1c1ccccc1 [III-177]
9 | 1 to 10 | 1 to 10 | – | – | > 200 | +++ (≥350) | – | – | – | – | CCC(CC)C(=O)N1[C@H](C(=O)O)[C@@H](C(C)(C)C)[C@H](NCc2cc(C(C)(C)C)ccc2OC)[C@@H]1c1ccccc1 [II-329]
10 | 1 to 10 | 1 to 10 | – | – | < 100 | ++ (≥150 and <350) | – | – | – | – | O=C(O)[C@H]1[C@H](C2CC2)[C@@H](Nc2cc(C(F)(F)F)ccn2)[C@@H](c2ccccc2)N1C(=O)C1CCCCC1 (racemic) [III-33]

The next lines start with the molecule.

Row | Structure (SMILES) | EC50 [1] [µM] | EC50 [2] [µM] | Maximum % activity (with co-corrector) (with co-corrector (2 μM)) | Emax (without co-corrector) [%] | Emax [3] [%] | Maximum % activity (with co-corrector) [4] | EC50 [5] [µM] | EC50 [6] [µM] | Maximum % activity (with co-corrector) [7] | Emax (CSE-HRP, without co-corrector) [%]
11 | COc1ncc(C2CCC2)cc1CN[C@H]1[C@H](C(C)(C)C)[C@@H](C(=O)O)N(C(=O)C2CCCCC2)[C@H]1c1ccccc1C [Example 92, (2S,3S,4S,5S)-3-tert-butyl-4-{[(5-cyclobutyl-2-methoxypyridin-3-yl)methyl]amino}-1-(cyclohexanecarbonyl)-5-(2-methylphenyl)pyrrolidine-2-carboxylic acid] | < 1 | < 1 | +++ (≥350) | > 200 | – | – | – | – | – | –
12 | COc1ncc(CC(C)C)cc1CN[C@H]1[C@H](C(C)(C)C)[C@@H](C(=O)O)N(C(=O)C2CCCCC2)[C@H]1c1ccccc1 [Example I-76] | 1 to 10 | < 1 | +++ (≥350) | > 200 | – | – | – | – | – | –
13 | COc1cc(F)ccc1CN[C@@H]1[C@@H](C(C)(C)C)[C@H](C(=O)O)N(C(=O)OC(C)C)[C@@H]1c1ccccc1 (racemic) [II-39] | – | – | – | – | – | – | 1 to 10 | 1 to 10 | +++ (≥350) | 100 to 200
14 | COc1cccc([C@@H]2[C@H](NCc3cc(Cl)ccc3OC)[C@@H](C(C)(C)C)[C@H](C(=O)O)N2C(=O)C2CCCCC2)n1 (racemic) [II-19] | – | – | – | – | – | – | 1 to 10 | 1 to 10 | +++ (≥350) | 100 to 200
15 | CO[C@@H]1CCC[C@@H](C(=O)N2[C@H](c3ccccc3)[C@H](Nc3cc(C(F)(F)F)cc(C)n3)[C@@H](C(C)(C)C)[C@@H]2C(=O)O)C1 (racemic) [Example I-31] | 1 to 10 | 1 to 10 | +++ (≥350) | < 100 | – | – | – | – | – | –
16 | COc1ncc(C(F)(F)F)cc1CN[C@@H]1[C@@H](C(C)(C)C)[C@H](C(=O)O)N(C(=O)C2CCCCC2)[C@@H]1c1cccnc1N(C)C (racemic) [II-52] | – | – | – | – | – | – | 1 to 10 | 1 to 10 | +++ (≥350) | 100 to 200
17 | COc1ccc(C(C)(C)C)cc1CN[C@H]1[C@H](C(C)(C)C)[C@@H](C(=O)O)N(C(=O)[C@H]2[C@H](C(F)(F)F)[C@H]3CC[C@@H]2O3)[C@H]1c1ccccc1OC(F)F (relative stereo) [Example I-223] | 1 to 10 | < 1 | +++ (≥350) | 100 to 200 | – | – | – | – | – | –
18 | COc1ccc(C(C)(C)C)cc1CN[C@H]1[C@H](C(C)(C)C)[C@@H](C(=O)O)N(C(=O)[C@H]2CCCCO2)[C@H]1c1ccccc1F [Example 50, (2S,3S,4S,5S)-3-tert-butyl-4-{[(5-tert-butyl-2-methoxyphenyl)methyl]amino}-5-(2-fluorophenyl)-1-[(2R)-oxane-2-carbonyl]pyrrolidine-2-carboxylic acid] | 1 to 10 | 1 to 10 | +++ (≥350) | 100 to 200 | – | – | – | – | – | –
19 | COc1cc(C(F)(F)F)ccc1CN[C@@H]1[C@@H](C(C)(C)C)[C@H](C(=O)O)N(C(=O)C2CCCCC2)[C@@H]1c1cccnc1N(C)C (racemic) [II-51] | – | – | – | – | – | – | 1 to 10 | 1 to 10 | +++ (≥350) | 100 to 200
20 | COc1cc2c(cc1CN[C@H]1[C@H](C(C)(C)C)[C@@H](C(=O)O)N(C(=O)[C@@H]3CCCC(F)(F)C3)[C@H]1c1ccccc1)CCC2 [Example I-190] | 1 to 10 | < 1 | +++ (≥350) | > 200 | – | – | – | – | – | –
21 | COc1c(Cl)cccc1CN[C@@H]1[C@@H](C(C)(C)C)[C@H](C(=O)O)N(C(=O)C2CCCCC2)[C@@H]1c1ccccc1 (racemic) [II-7] | – | – | – | – | – | – | 1 to 10 | 1 to 10 | +++ (≥350) | < 100
22 | COc1cc2c(cc1CN[C@H]1[C@H](C(C)(C)C)[C@@H](C(=O)O)N(C(=O)OC(C)C)[C@H]1c1cccnc1N(C)C)C(C)(C)CCC2(C)C [Example I-251] | – | – | – | – | – | – | 1 to 10 | 1 to 10 | +++ (≥350) | 100 to 200
23 | COc1ccccc1CN[C@@H]1[C@@H](C(C)(C)C)[C@H](C(=O)O)N(C(=O)OC(C)C)[C@@H]1c1ccccc1 (racemic) [II-46] | – | – | – | – | – | – | 1 to 10 | 1 to 10 | +++ (≥350) | 100 to 200
24 | COc1ccc(C(C)(C)C)cc1CN[C@H]1[C@H](C(C)(C)C)[C@@H](C(=O)O)N(C(=O)[C@H]2CCCCO2)[C@H]1c1cccnc1N(C)C [Example 19, (2S,3S,4S,5S)-3-tert-butyl-4-{[(5-tert-butyl-2-methoxyphenyl)methyl]amino}-5-[2-(dimethylamino)pyridin-3-yl]-1-[(2R)-oxane-2-carbonyl]pyrrolidine-2-carboxylic acid] | 1 to 10 | 1 to 10 | +++ (≥350) | > 200 | – | – | – | – | – | –
25 | COc1cc(C(F)(F)F)ccc1CN[C@H]1[C@H](C(C)(C)C)[C@@H](C(=O)O)N(C(=O)[C@@H]2CCC[C@@H](OC)C2)[C@H]1c1ccccc1 [Example I-255] | – | – | – | – | – | – | 1 to 10 | 1 to 10 | +++ (≥350) | < 100
26 | COc1ncc(C2CCC2)cc1CN[C@H]1[C@H](C(C)(C)C)[C@@H](C(=O)O)N(C(=O)OC(C)C)[C@H]1c1ccccc1C1CC1 [Example 93, (2S,3S,4S,5S)-3-tert-butyl-4-{[(5-cyclobutyl-2-methoxypyridin-3-yl)methyl]amino}-5-(2-cyclopropylphenyl)-1-{[(propan-2-yl)oxy]carbonyl}pyrrolidine-2-carboxylic acid] | 1 to 10 | < 1 | +++ (≥350) | > 200 | – | – | – | – | – | –
27 | COc1ncc(C(F)(F)F)cc1N[C@@H]1[C@@H](C(C)(C)C)[C@H](C(=O)O)N(C(=O)C2CCCCC2)[C@@H]1c1ccccc1 (racemic) [Example I-15] | < 1 | < 1 | +++ (≥350) | < 100 | – | – | – | – | – | –
28 | CCc1ccccc1[C@H]1[C@@H](NCc2cc(C3CCC3)cnc2OC)[C@H](C(C)(C)C)[C@@H](C(=O)O)N1C(=O)[C@@H]1CCCCO1 [Example I-297] | – | – | – | – | – | – | 1 to 10 | < 1 | +++ (≥350) | > 200
